This passage reports IC50 results from patent US20260207704A1, “STAPLED PEPTIDES AND METHODS THEREOF” (priority 2022, published 2026).

Each structure is given as a SMILES string.

For one test, the system named is DLD1 reporter. In words: reporter assay (DLD1 reporter assay). The format is cell-based. The note with it: read-out: DLD1 4% Abs IC50; DLD1 4%. The source says:
Various technologies can be utilized for characterizing and/or assessing provided technologies (e.g., agents (e.g., various peptides), compositions, methods, etc.) in accordance with the present disclosure. As described herein, in some embodiments, a useful technology is or comprises fluorescence polarization. In some embodiments, a useful technology assesses LogP or LogD. In some embodiments, a useful technology is or comprises a CHI LogD assay. In some embodiments, a useful technology assesses solubility. In some embodiments, a useful technology is or comprises NanoBRET. In some embodiments, a useful technology is or comprises a reporter assay (e.g., DLD1 reporter assay). In some embodiments, a useful technology is or comprises alphascreen. Certain useful protocols are described in the Examples. Those skilled in the art appreciate that suitable adjustments may be made to such protocols, e.g., according to specific conditions, agents, purposes, etc.
Various technologies can be utilized to assess technologies of the present disclosure. For example, in some embodiments, solubility, LogD, interactions with targets, etc. of various agents such as stapled peptides were assessed using technologies described in WO 2022/261257 (e.g., those in its Examples). In some embodiments, solubility, shake flask LogD, and binding to beta-catenin were assessed. In some embodiments, an assay for assessing interactions, e.g., with beta-catenin, was fluorescence polarization as described in WO 2022/261257. In some embodiments, an assay was Nano-BRET target engagement assay that assessed beta-catenin/TCF4 engagement as described in WO 2022/261257. In some embodiments, an assay was a reporter assay as reported in Example 4 of WO 2022/261257. In some embodiments, an assay was a COLO320DM proliferation assay as reported in Example 4 of WO 2022/261257.
For orientation: Reporter assays use an easily measured gene product as a stand-in for the process of interest.
One may read the IC50 as the concentration needed to halve the response being measured. Consider `CC(=O)N1CCC[C@]12CC=CCCCC1(CCCC=CCCCOC(=O)N3CC[C@@]4(C3)NC(=O)[C@H](CCCCNC(=O)CC[C@@H](C(=O)N[C@@H](C)C(N)=O)NC(=O)[C@H](Cc3csc5ccccc35)NC(=O)[C@H](Cc3ccccc3C(F)(F)F)NC4=O)NC(=O)[C@H](Cc3ccccc3)NC(=O)[C@H](C)NC(=O)[C@H](C(C)C)NC(=O)[C@H](CN(CC(=O)O)CC(F)(F)F)NC(=O)[C@H](CC(=O)O)NC1=O)NC(=O)[C@H](CC(C)(C)C)NC(=O)[C@H](CC(=O)O)NC2=O` (single isomer, unassigned) [I-125, Ac-PL3-Asp-Npg-B5-Asp-TfeGA-Val-Ala-Phe-Lys*3-PyrS2-2F3MeF-BztA-GlnR*3-Ala-NH2], for which the half-maximal inhibitory concentration (IC50) was 1000 to 5000 nM.

With `CC(=O)N1CCC[C@]12CC=CCCCC1(CCCC=CCCCOC(=O)N3CC[C@@]4(C3)NC(=O)[C@H](CCCCNC(=O)CC[C@@H](C(=O)NC(C)(C)C(N)=O)NC(=O)[C@H](Cc3csc5ccccc35)NC(=O)[C@H](Cc3ccccc3C(F)(F)F)NC4=O)NC(=O)[C@H](Cc3ccccc3)NC(=O)[C@H](C)NC(=O)[C@H](C)NC(=O)[C@H](CN(CC(=O)O)CC(F)(F)F)NC(=O)[C@H](CC(=O)O)NC1=O)NC(=O)[C@H](CC(C)(C)C)NC(=O)[C@H](CC(=O)O)NC2=O` (single isomer, unassigned) [I-126, Ac-PL3-Asp-Npg-B5-Asp-TfeGA-Ala-Ala-Phe-Lys*3-PyrS2-2F3MeF-BztA-GlnR*3-Aib-NH2], the 50% inhibitory concentration (IC50) was in the range of 1000 to 5000 nM.

Take `CC(=O)N1CCC[C@]12CC=CCCCC1(CCCC=CCCCOC(=O)N3CC[C@@]4(C3)NC(=O)[C@H](CCCCNC(=O)CC[C@@H](C(=O)N[C@@H](CC(C)C)C(=O)N[C@@H](CO)C(N)=O)NC(=O)[C@H](Cc3csc5ccccc35)NC(=O)[C@H](Cc3ccccc3C(F)(F)F)NC4=O)NC(=O)[C@H](Cc3ccccc3)NC(=O)[C@H](C)NC(=O)C3(CCCC3)NC(=O)[C@H](Cc3cccc(C(=O)O)c3)NC(=O)[C@H](CC(=O)O)NC1=O)NC(=O)[C@H](CC(C)(C)C)NC(=O)[C@H](CC(=O)O)NC2=O` (relative stereo) [I-141, Ac-PL3-Asp-Npg-B5-Asp-3COOHF-CyLeu-Ala-Phe-Lys*3-PyrS2-2F3MeF-BztA-GlnR*3-Leu-Ser-NH2]: the IC50 was not above 1000 nM.

In the case of `CC(=O)N1CCC[C@]12CC=CCCCC1(CCCC=CCCCOC(=O)N3CC[C@@]4(C3)NC(=O)[C@H](CCCCNC(=O)CC[C@@H](C(=O)N[C@@H](C)C(N)=O)NC(=O)[C@H](Cc3csc5ccccc35)NC(=O)[C@H](Cc3ccsc3)NC4=O)NC(=O)[C@H](Cc3ccccc3)NC(=O)[C@H](C)NC(=O)C(C)(C)NC(=O)[C@H](Cc3cccc(C(=O)O)c3)NC(=O)[C@H](CC(=O)O)NC1=O)NC(=O)[C@H](CC(C)(C)C)NC(=O)[C@H]([C@H](C)O)NC2=O` (relative stereo) [I-163, Ac-PL3-aThr-Npg-B5-Asp-3COOHF-Aib-Ala-Phe-Lys*3-PyrS2-3Thi-BztA-GlnR*3-Ala-NH2], the half-inhibitory concentration (IC50) is more than 5000 nM.

For the compound `CC(=O)N1CCC[C@]12CC=CCCCC1(CCCC=CCCCOC(=O)N3CC[C@@]4(C3)NC(=O)[C@H](CCCCNC(=O)CC[C@@H](C(=O)N[C@@H](CC(C)C)C(=O)N[C@@H](CO)C(N)=O)NC(=O)[C@H](Cc3csc5ccccc35)NC(=O)[C@H](Cc3ccccc3C(F)(F)F)NC4=O)NC(=O)[C@H](Cc3ccccc3)NC(=O)[C@H](C)NC(=O)[C@H](C)NC(=O)[C@H](Cc3cccc(C(=O)O)c3)NC(=O)[C@H](CC(=O)O)NC1=O)NC(=O)[C@H](CC(C)(C)C)NC(=O)[C@H](CC(N)=O)NC2=O` (relative stereo) [I-142, Ac-PL3-Asn-Npg-B5-Asp-3COOHF-Ala-Ala-Phe-Lys*3-PyrS2-2F3MeF-BztA-GlnR*3-Leu-Ser-NH2], the IC50 is more than 5000 nM.

With `CC(=O)N1CCC[C@]12CC=CCCCC1(CCCC=CCCCOC(=O)N3CC[C@@]4(C3)NC(=O)[C@H](Cc3cn(nn3)CCCC[C@@H](C(N)=O)NC(=O)[C@H](Cc3csc5ccccc35)NC(=O)[C@H](Cc3ccsc3)NC4=O)NC(=O)[C@H](Cc3ccccc3)NC(=O)[C@H](C)NC(=O)[C@H](C)NC(=O)[C@H](Cc3cccc(C(=O)O)c3)NC(=O)[C@H](CC(=O)O)NC1=O)NC(=O)[C@H](CC(C)(C)C)NC(=O)[C@H](CC(=O)O)NC2=O` (stereo partly drawn) [I-24, Ac-PL3-Asp-Npg-B5-Asp-3COOHF-Ala-Ala-Phe-sAla*3-PyrS2-3Thi-BztA-TriAzLys*3-NH2], the IC50 fell in the range of 1000 to 5000 nM.

In the case of `CC(=O)N1CCC[C@]12CC=CCCCC1(CCCC=CCCCOC(=O)N3CC[C@@]4(C3)NC(=O)[C@H](CCCCNC(=O)CC[C@@H](C(=O)N[C@@H](CC(C)C)C(=O)N[C@@H](CO)C(N)=O)NC(=O)[C@H](Cc3csc5ccccc35)NC(=O)[C@H](Cc3ccccc3C(F)(F)F)NC4=O)NC(=O)[C@H](Cc3ccccc3)NC(=O)[C@H](C)NC(=O)C3(CC3)NC(=O)[C@H](Cc3cccc(C(=O)O)c3)NC(=O)[C@H](CC(=O)O)NC1=O)NC(=O)[C@H](CC(C)(C)C)NC(=O)[C@H](CC(=O)O)NC2=O` (relative stereo) [I-139, Ac-PL3-Asp-Npg-B5-Asp-3COOHF-Cpg-Ala-Phe-Lys*3-PyrS2-2F3MeF-BztA-GlnR*3-Leu-Ser-NH2], the concentration for half-maximal inhibition (IC50) is not above 1000 nM.

In the case of `CC(=O)N1CCC[C@]12CC=CCCCC1(CCCC=CCCCOC(=O)N3CC[C@@]4(C3)NC(=O)[C@H](CCCCNC(=O)CC[C@@H](C(=O)N[C@H](C(N)=O)C(C)C)NC(=O)[C@H](Cc3csc5ccccc35)NC(=O)[C@H](Cc3ccccc3C(F)(F)F)NC4=O)NC(=O)[C@H](Cc3ccccc3)NC(=O)[C@H](C)NC(=O)[C@H](C)NC(=O)[C@H](CN(CC(=O)O)CC(F)(F)F)NC(=O)[C@H](CC(=O)O)NC1=O)NC(=O)[C@H](CC(C)(C)C)NC(=O)[C@H](CC(=O)O)NC2=O` (relative stereo) [I-129, Ac-PL3-Asp-Npg-B5-Asp-TfeGA-Ala-Ala-Phe-Lys*3-PyrS2-2F3MeF-BztA-GlnR*3-Val-NH2], the IC50 was in the range of 1000 to 5000 nM.

Consider `CC(=O)N1CCC[C@]12CC=CCCCC1(CCCC=CCCCOC(=O)N3CC[C@@]4(C3)NC(=O)[C@H](CCCCNC(=O)CC[C@@H](C(=O)N[C@@H](C)C(N)=O)NC(=O)[C@H](Cc3csc5ccccc35)NC(=O)[C@H](Cc3ccccc3C(F)(F)F)NC4=O)NC(=O)[C@H](Cc3ccccc3)NC(=O)[C@H](C)NC(=O)[C@H](CC(C)(C)C)NC(=O)[C@H](Cc3cccc(C(=O)O)c3)NC(=O)[C@H](CC(=O)O)NC1=O)NC(=O)[C@H](CC(C)(C)C)NC(=O)[C@H](CC(=O)O)NC2=O` (single isomer, unassigned) [I-99, Ac-PL3-Asp-Npg-B5-Asp-3COOHF-Npg-Ala-Phe-Lys*3-PyrS2-2F3MeF-BztA-GlnR*3-Ala-NH2], for which the IC50 is not above 1000 nM.

For the compound `CC(=O)N1CCC[C@]12CC=CCCCC1(CCCC=CCCCOC(=O)N3CC[C@@]4(C3)NC(=O)[C@H](CCCCNC(=O)CCC[C@@H](C(=O)N[C@@H](C)C(N)=O)NC(=O)[C@H](Cc3csc5ccccc35)NC(=O)[C@H](Cc3ccsc3)NC4=O)NC(=O)[C@H](Cc3ccccc3)NC(=O)[C@H](C)NC(=O)[C@H](C)NC(=O)[C@H](Cc3cccc(C(=O)O)c3)NC(=O)[C@H](CC(=O)O)NC1=O)NC(=O)[C@H](CC(C)(C)C)NC(=O)[C@H](CC(=O)O)NC2=O` (relative stereo) [I-183, Ac-PL3-Asp-Npg-B5-Asp-3COOHF-Ala-Ala-Phe-Lys*3-PyrS2-3Thi-BztA-hGlnR*3-Ala-NH2], the IC50 was 1000 to 5000 nM.

Take `CC(=O)N1CCC[C@]12CC=CCCCC1(CCCC=CCCCOC(=O)N3CC[C@@]4(C3)NC(=O)[C@H](CCCCNC(=O)CC[C@@H](C(=O)N[C@@H](CC(C)C)C(N)=O)NC(=O)[C@H](Cc3csc5ccccc35)NC(=O)[C@H](Cc3ccccc3C(F)(F)F)NC4=O)NC(=O)[C@H](Cc3ccccc3)NC(=O)[C@H](C)NC(=O)[C@H](CC(C)(C)C)NC(=O)[C@H](Cc3cccc(C(=O)O)c3)NC(=O)[C@H](CC(=O)O)NC1=O)NC(=O)[C@H](CC(C)(C)C)NC(=O)[C@H](CC(=O)O)NC2=O` (single isomer, unassigned) [I-109, Ac-PL3-Asp-Npg-B5-Asp-3COOHF-Npg-Ala-Phe-Lys*3-PyrS2-2F3MeF-BztA-GlnR*3-Leu-NH2]: the 50% inhibitory concentration (IC50) was in the range of 1000 to 5000 nM.

Still in this test, the particulars now being: read-out: DLD1 4% Abs IC50; DLD1 reporter, 4%.
As for `CC(=O)N1CCC[C@]12CC=CCCCC1(CCCC=CCCCOC(=O)N3CC[C@@]4(C3)NC(=O)[C@H](CCCCn3cc(nn3)C[C@@H](C(=O)N[C@@H](C)C(N)=O)NC(=O)[C@H](Cc3csc5ccccc35)NC(=O)[C@H](Cc3ccsc3)NC4=O)NC(=O)[C@H](Cc3ccccc3)NC(=O)[C@H](C)NC(=O)[C@H](C)NC(=O)[C@H](Cc3cccc(C(=O)O)c3)NC(=O)[C@H](CC(=O)O)NC1=O)NC(=O)[C@H](CC(C)(C)C)NC(=O)[C@H](CC(=O)O)NC2=O` (stereo partly drawn) [I-337, Ac-PL3-Asp-Npg-B5-Asp-3COOHF-Ala-Ala-Phe-TriAzLys*3-PyrS2-3Thi-BztA-sAla*3-Ala-NH2], the IC50 was not above 1000 nM.

For the compound `CC(=O)N1CCC[C@]12CC=CCCCC1(CCCC=CCCCOC(=O)N3CC[C@@]4(C3)NC(=O)[C@H](Cc3cn(nn3)CCCC[C@@H](C(=O)N[C@@H](C)C(N)=O)NC(=O)[C@H](Cc3csc5ccccc35)NC(=O)[C@H](Cc3ccsc3)NC4=O)NC(=O)[C@H](Cc3ccccc3)NC(=O)[C@H](C)NC(=O)[C@H](C)NC(=O)[C@H](Cc3cccc(C(=O)O)c3)NC(=O)[C@H](CC(=O)O)NC1=O)NC(=O)[C@H](CC(C)(C)C)NC(=O)[C@H](CC(=O)O)NC2=O` (stereo partly drawn) [I-338, Ac-PL3-Asp-Npg-B5-Asp-3COOHF-Ala-Ala-Phe-sAla*3-PyrS2-3Thi-BztA-TriAzLys*3-Ala-NH2], the IC50 is not above 1000 nM.
